Consider 8 compounds from patent US7771727B2, “Conjugates of therapeutic or cytotoxic agents and biologically active peptides” (The Administrators of the Tulane Educational Fund, priority 2002, dated 2010).

Entries after “also recorded” stand apart in the source; their conditions may differ. Read-outs that look alike come from different tables or passages of the source. Numbered stars: 1 amine (or outer) side, 2 acyl side, 3 side chain; on linkers, the order of the positions; unused ones are H or OH. Bridge positions count the residues as written; N and C are the ends. Square brackets hold non-standard residues; d marks the D form. Peptide text beside a SMILES is read from it. * marks the point of attachment. Camptothecin(20S-OCO) = CC[C@@]1(OC(=O)*)C(=O)OCc2c1cc1n(c2=O)Cc2cc3ccccc3nc2-1; NGly(2-(methylamino)ethyl) = CN(CCN(CC(=O)[*:2])[*:1])[*:3]; X1 = COc1ccc(/C=C\c2cc(OC)c(OC)c(OC)c2)cc1OC(=O)*; Gly(N-2-aminoethyl) = NCCNCC(=O)O; X2 = CN(C)CCN(CC(=O)[*:2])[*:1]; Gly(N(CH2)3NH2) = NCCCNCC(=O)O; Gly(N-CH2CH2OH) = O=C(O)CNCCO; Nle = CCCC[C@H](N)C(=O)O

A word on the IC50: it is the concentration that inhibits the measured activity by half. One may read the half-life as the time in which the quantity being followed falls by half. Lower therefore signals rapid decline.

For series [1], the system named is human neuroblastoma IMR32 cells (somatostatin receptor overexpression). In words: MTT cytotoxicity assay, IMR-32 cells. The conditions noted are these: for cytotoxic activity: 3 days. The protocol: The cytotoxic activities of these conjugates were measured using a standard MTT assay kit (Promega Corporation, Madison, Wis.). Each compound was incubated for 3 days with human neuroblastoma IMR32 cells (somatostatin receptor overexpression) at different concentrations in quadruplate and IC50's were generated from the dose-response curves (FIG. 2).
In general terms: Formazan colour is commonly taken as a measure of viable cells.

The next series is described as follows: physchem. The conditions noted are these: for half-life / Half Life Phosphate Buffer: buffer. On the procedure: (§1) Each peptide conjugate was subjected to phosphate buffer and rat serum stability studies. The analogues were incubated in either 0.1 M phosphate buffer or fresh rat serum at 37° C. and aliquots were taken at different time points and examined by HPLC.

Series [2] deals with GH release from monolayer cultures of rat pituitary cells. Type of series: cell-based. The conditions noted are these: read-out: Growth Hormone Inhibition IC50.
A short description of the next series: in vitro. On the procedure:
as §1

A further series concerns tumor. In words: Preliminary tumor bearing animal studies. The series is classed as in vivo. The conditions noted are these: repeated intraperitoneal administration.
Series [3] relates to NCI-H69 small cell lung carcinomas (expression of SSTR2). The conditions noted are these: nude mice; doses far below the maximum tolerated equivalent doses of camptothecin alone.
The conditions of series [4]: camptothecin: tertiary hydroxyl, ring position 20; combretastatin: phenolic hydroxyl; cited from earlier work.
[5] abbreviates: Homo sapiens, IMR-32, 72 h, read-out: Cytotoxicity IC50, IMR-32 Cells.
Setting [6] is: phosphate buffer, length of the experiment 50 h.

With `CCCC[C@H](NC(=O)[C@@H](CO)NC(=O)CN(CCN)C(=O)Oc1cc(/C=C\c2cc(OC)c(OC)c(OC)c2)ccc1OC)C(=O)N[C@H](Cc1ccc(O)cc1)C(=O)N[C@H](CO)C(=O)N[C@H]1CSSC[C@@H](C(=O)N[C@H](C(N)=O)[C@@H](C)O)NC(=O)[C@H]([C@@H](C)O)NC(=O)[C@H](CCCCN)NC(=O)[C@@H](Cc2c[nH]c3ccccc23)NC(=O)[C@H](Cc2ccccc2)NC1=O` [Compound 6, combretastatin-carbonyl-N-(2-aminoethyl)-glycine-D-Ser-Me-D-Tyr-D-Ser-cyclo[Cys-Phe-D-Trp-Lys-Thr-Cys]-Thr-amide] (X1-[Gly(N-2-aminoethyl)][dS][Nle][dY][dS]CF[dW]KTCT-NH2; disulfide 6-11), in series [1] (IMR32 cells), the “cytotoxic activity” value is “most cytotoxic”. Moreover, the IC50 in series [1] (read-out: Cytotoxicity IC50, IMR-32 Cells, 3 days incubation, MTT assay) amounted to 2.79 ± 0.33 nM; in series [2] (rat pituitary cells), 0.31 ± 0.1 nM. Also, the half-life in the series “physchem” is 30 h; in the series “in vitro” (rat, serum) it was 4 h. For the same compound, the “conjugate that is free cytotoxin after 3 days” value in the series “physchem” (from stability data in buffer, after 3 days) came to 50%. Moreover, the “Half-Life Rat Serum” value in “in vitro” (fresh rat serum, 37° C.) amounted to 4 h.
Take `CCCC[C@H](NC(=O)[C@@H](CO)NC(=O)CN(CCO)C(=O)O[C@]1(CC)C(=O)OCc2c1cc1n(c2=O)Cc2cc3ccccc3nc2-1)C(=O)N[C@H](Cc1ccc(O)cc1)C(=O)N[C@H](CO)C(=O)N[C@H]1CSSC[C@@H](C(=O)N[C@H](C(N)=O)[C@@H](C)O)NC(=O)[C@H]([C@@H](C)O)NC(=O)[C@H](CCCCN)NC(=O)[C@@H](Cc2c[nH]c3ccccc23)NC(=O)[C@H](Cc2ccccc2)NC1=O` [Compound 5] ({Camptothecin(20S-OCO)}-[Gly(N-CH2CH2OH)][dS][Nle][dY][dS]CF[dW]KTCT-NH2; disulfide 6-11): the figures for the 50% inhibitory concentration (IC50) in series [1] (human) and in series [2] were more than 1000 nM and 0.49 ± 0.1 nM, respectively.
Regarding `CCCC[C@H](NC(=O)[C@@H](CO)NC(=O)CN(CCNC)C(=O)O[C@]1(CC)C(=O)OCc2c1cc1n(c2=O)Cc2cc3ccccc3nc2-1)C(=O)N[C@H](Cc1ccc(O)cc1)C(=O)N[C@H](CO)C(=O)N[C@H]1CSSC[C@@H](C(=O)N[C@H](C(N)=O)[C@@H](C)O)NC(=O)[C@H]([C@@H](C)O)NC(=O)[C@H](CCCCN)NC(=O)[C@@H](Cc2c[nH]c3ccccc23)NC(=O)[C@H](Cc2ccccc2)NC1=O` [Compound 2, camptothecin-carbonyl-N-(N-methyl-2-aminoethyl)-glycine-D-Ser-Nle-D-Tyr-D-Ser-cyclo[Cys-Phe-D-Trp-Lys-Thr-Cys]-Thr-amide] ({Camptothecin(20S-OCO)}-[NGly(2-(methylamino)ethyl)][dS][Nle][dY][dS]CF[dW]KTCT-NH2; disulfide 6-11), in the series on tumor, the “cytotoxic effect in the tumor” value is “equally effective”. In addition, the “stability to cell media incubation conditions” value in series [1] is “very stable”. Half-maximal inhibition in series [1] (human) (IC50) was put at 54.2 ± 6 nM. For the same compound, in “physchem”, the “Half Life Phosphate Buffer” value came to 123 h and the half-life was approximately 120 h. Further, the 50% inhibitory concentration (IC50) in series [2] was 0.27 ± 0.02 nM. Also, in “in vitro” (rat, serum), the “Half-Life Rat Serum” value was 18 h and the half-life was 18 h. In series [3], the “growth of transplanted NCI-H69 small cell lung carcinomas” value is “significantly stabilize the growth”.
Consider `COc1ccc(C[C@@H](O)c2cc(OC)c(OC)c(OC)c2)cc1O` [Combretastatin, reference compound], for which the IC50 in series [1] (setting [5]) was found to be 4.36 nM. Moreover, in series [4], the “pKa of hydroxyl group” value is “approximately 10.3”.
On to `CCCC[C@H](NC(=O)[C@@H](CO)NC(=O)CN(CCCN)C(=O)O[C@]1(CC)C(=O)OCc2c1cc1n(c2=O)Cc2cc3ccccc3nc2-1)C(=O)N[C@H](Cc1ccc(O)cc1)C(=O)N[C@H](CO)C(=O)N[C@H]1CSSC[C@@H](C(=O)N[C@H](C(N)=O)[C@@H](C)O)NC(=O)[C@H]([C@@H](C)O)NC(=O)[C@H](CCCCN)NC(=O)[C@@H](Cc2c[nH]c3ccccc23)NC(=O)[C@H](Cc2ccccc2)NC1=O` [Compound 4] ({Camptothecin(20S-OCO)}-[Gly(N(CH2)3NH2)][dS][Nle][dY][dS]CF[dW]KTCT-NH2; disulfide 6-11), for which the half-maximal inhibitory concentration (IC50) was more than 1000 nM in series [1] (human) and 0.26 ± 0.03 nM in series [2] (rat pituitary cells). Moreover, the “buffer stability” value in the series “physchem” (setting [6]) was “complete buffer stability”. The half-life in “in vitro” (rat, serum) is 72 h. The “rat serum stability” value in the series “in vitro” (rat, serum) is recorded as “most stable”.
For the compound `CC[C@@]1(O)C(=O)OCc2c1cc1n(c2=O)Cc2cc3ccccc3nc2-1` [Camptothecin, reference compound], the half-maximal inhibitory concentration (IC50) in series [1] (setting [5]) turned out to be 2.21 ± 0.44 nM. The “pKa of hydroxyl group” value in series [4] is recorded as “approximately 18”.
Compound `CCCC[C@H](NC(=O)[C@@H](CO)NC(=O)CN(CCN(C)C)C(=O)O[C@]1(CC)C(=O)OCc2c1cc1n(c2=O)Cc2cc3ccccc3nc2-1)C(=O)N[C@H](Cc1ccc(O)cc1)C(=O)N[C@H](CO)C(=O)N[C@H]1CSSC[C@@H](C(=O)N[C@H](C(N)=O)[C@@H](C)O)NC(=O)[C@H]([C@@H](C)O)NC(=O)[C@H](CCCCN)NC(=O)[C@@H](Cc2c[nH]c3ccccc23)NC(=O)[C@H](Cc2ccccc2)NC1=O` [Compound 3] ({Camptothecin(20S-OCO)}-[X2][dS][Nle][dY][dS]CF[dW]KTCT-NH2; disulfide 6-11) gave an IC50 in series [1] (human) of 571 ± 48 nM. In addition, in “physchem”, the “buffer stability” value is “complete buffer stability” and the “Half Life Phosphate Buffer” value was “Stable”. Moreover, the IC50 in series [2] came out at 0.3 ± 0.04 nM. Moreover, the “rat serum stability” value in the series “in vitro” is given as “most stable”. The compound also gave a half-life in “in vitro” (rat, serum) of 59 h.
On to `CCCC[C@H](NC(=O)[C@@H](CO)NC(=O)CN(CCN)C(=O)O[C@]1(CC)C(=O)OCc2c1cc1n(c2=O)Cc2cc3ccccc3nc2-1)C(=O)N[C@H](Cc1ccc(O)cc1)C(=O)N[C@H](CO)C(=O)N[C@H]1CSSC[C@@H](C(=O)N[C@H](C(N)=O)[C@@H](C)O)NC(=O)[C@H]([C@@H](C)O)NC(=O)[C@H](CCCCN)NC(=O)[C@@H](Cc2c[nH]c3ccccc23)NC(=O)[C@H](Cc2ccccc2)NC1=O` [Compound 1, camptothecin-carbonyl-N-(2-aminoethyl)-glycine-D-Ser-Nle-D-Tyr-D-Ser-cyclo[Cys-Phe-D-Trp-Lys-Thr-Cys]-Thr-amide] ({Camptothecin(20S-OCO)}-[Gly(N-2-aminoethyl)][dS][Nle][dY][dS]CF[dW]KTCT-NH2; disulfide 6-11), for which the “cytotoxic effect in the tumor” value in the series with tumor was “equally effective”. In addition, in series [1] (IMR32 cells), the “cytotoxic potency relative to compound 2” value is “seven times less potent than compound 2” and the “cytotoxic activity” value is reported as “next most potent; also recorded: high cytotoxicity”. Also, the “stability to cell media incubation conditions” value in series [1] (cell media) was “very stable”. In series [1] (human), this compound gave a half-inhibitory concentration (IC50) of 374 ± 18 nM. In addition, the “buffer stability” value in “physchem” (setting [6]) is recorded as “complete buffer stability”. Also, the 50% inhibitory concentration (IC50) in series [2] (rat pituitary cells) was 0.32 ± 0.02 nM. In “in vitro” (rat, serum), the half-life was 106 h and the “rat serum stability” value is “most stable”.
